Assay results reported in patent publication US20010041801A1, “Water soluble fullerenes with antiviral activity” (The Regents of the University of California, priority 1994, published 2001).
Several values for one entry are separate records, joined by “and”; a condition that tells them apart may be missing. Identical values can stand only once. Entries after “also recorded” stand apart in the source; their conditions may differ. Like-named read-outs stand apart in the source and are kept apart here.

Columns and labels:
HIV-1 protease (HIVP) = biological target: T1, HIV-1 protease (HIVP) (Human immunodeficiency virus type 1 group M subtype B, UniProt P04585); assay: Inhibition of HIV-1 protease, HPLC assay with kinetic analysis; format: biochemical
T1 construct: HIV produces a small, dimeric aspartyl protease which specifically cleaves the polyprotein precursors
Description: The ability of compound 2c to inhibit the HIVP was assayed with an HPLC method as described in R. L DesJarlais, et al., Proc. Natl. Acad. Sci U.S.A., 87:6644-6648, 1990. […] Assays were performed in buffer containing 50 mM NaAc pH 5.5, 1.0 M NaCl, 5% glycerol, 1% DMSO, and 2 mM EDTA. Inhibitor was preincubated with ≈0.05 μg of enzyme for 5 minutes at which time the reaction was initiated by addition of substrate. The reaction was quenched at <15% product formation by the addition of 15 μL of 10% TFA. The cleavage products of the substrate peptide H-Lys-Ala-Arg-Val-Tyr-p-nitro-Phe-Glu-Ala-Ile-NH2 (made by Bachem, Philadelphia, Pa.) were assayed by HPLC using a 10-40% (acetonitrile, 0.1% TFA): (water, 0.1% TFA) gradient over 30 minutes at 1 mL/minute. Product was quantitated by integration of peak areas followed by comparison to product standard curves.
Determination of kinetic constants was done with the program KinetAsyst (IntelliKinetics) by fitting of the data to the equation […]] which describes competitive inhibition.

Cytotoxicity in H9 cells = format: cell-based, human; conditions: human, H9 cells; cell counts on day 6
H9 cells = assay: Cytotoxicity in H9 cells; format: cell-based, human; conditions: b68: up to 100 μM
DNA polymerase α = DNA polymerase α (Homo sapiens, UniProt P09884); assay: Inhibition of cellular DNA polymerase α, cell-free; format: biochemical; conditions: AZT-5′-triphosphate used for AZT, read-out: IC50 Polymerases: DNA Polymerase α
HIV-1G910-6 = assay: microbe, parasite or virus in culture; format: cell-based
Excerpt: (§1) The availability of AZT-resistant and -susceptible viruses allowed us to evaluate the compounds of this invention for their susceptibilities to these viruses in acutely infected PBMC in two experiments. […] In the same assay, the EC50 for TIBO [(+)-(5s)-4,5,6,7-tetrahydro-5methyl-6-(3-methyl-2-butenyl)imidazo(4,5,1-jk)(1,4)benzodiazepin-2(1 H)-thione] R82150 increased >500-fold (data not shown).

HIV-1 HI 12.2 = assay: Susceptibility of pretherapy AZT-susceptible isolate in acutely infected PBMC; format: cell-based; conditions: Human immunodeficiency virus 1, PBMC, read-out: EC50 against pretherapy isolate
Excerpt: as §1

[1] = test system: nevirapine (BI-RG587)-susceptible HIV-1; assay: Susceptibility of nevirapine-susceptible HIV-1; format: cell-based; conditions: Human immunodeficiency virus 1, read-out: EC50 against nevirapine-susceptible HIV-1
HIV-1 = HIV-1 p24 antigen assay in supernatants of acutely infected PBMC; format: cell-based; conditions: Human immunodeficiency virus 1; PBMC acutely infected with HIV-1
Description: To determine whether the fullerene may bind tightly to inactivate the viral RT, we also measured levels of HIV-1 p24 in supernatants of treated and untreated cultures. Clarified supernatants were treated with Triton X-100 (Sigma Chemicals, St. Louis, Mo.) and tested for HIV-1 antigen by immunocapture with a commercial kit (Abbott, North Chicago, Ill.).

[2] = Cytotoxicity in Vero cells; format: cell-based; conditions: African green monkey, Vero cells; day 3
Vero cells = assay: Cytotoxicity in Vero cells; format: cell-based; conditions: b68: up to 100 μM
[3] = biological target: T2, recombinant HIV-1 protease (Human immunodeficiency virus type 1 group M subtype B, UniProt P04585); assay: Antiprotease assay, method similar to Ido et al.; format: biochemical
T2 construct: HIV produces a small, dimeric aspartyl protease which specifically cleaves the polyprotein precursors
Description: Routine protocols can be followed to determine whether a derivatized buckministerfullerene compound has virucidal properties. […] This method is similar to that described by Ido, et al., J. Biol. Chem., 266:24359-24366, 1991). Inhibition is time dependent, and preincubation with the inhibitor results in greater enzyme inhibition, indicating a slow binding process
Compound 2c also has antiprotease activity. […] The method used for the assay was similar to that described by Ido, et al., J. Biol. Chem., 266:24359-24366, 1991).

HIV-2ROD = assay: Antiviral activity in acutely infected human PBMC, virus RT level; format: cell-based; conditions: Human immunodeficiency virus 2, PBMC, 144 h, read-out: Antiviral Activity (EC50) in PBMC infected with HIV-2ROD
Description: (§2) Compound 2c was evaluated for antiviral activity in cells acutely and chronically infected with human immunodeficiency virus (HIV). Reverse transcriptase (RT) levels associated with virus were determined with virus concentrated from cell culture supernatants by high-speed centrifugation to reduce the chances of drug carryover in the enzyme assay using the method described in R. F. Schinazi, et al., Antimicrob. Agents Chemother., 36:2423-2431, 1992.

HIV-1 LAI = assay: as above; format: cell-based; conditions: Human immunodeficiency virus 1, PBMC, 144 h, read-out: Antiviral Activity (EC50) in PBMC infected with HIVLAI
Description: as §2

[4] = Cytotoxicity in CEM cells; format: cell-based; conditions: human, CEM cells; cell counts on day 6
CEM cells = assay: Cytotoxicity in CEM cells; format: cell-based; conditions: b68: up to 100 μM

Chain of DNA polymerase α (P09884 whole entry): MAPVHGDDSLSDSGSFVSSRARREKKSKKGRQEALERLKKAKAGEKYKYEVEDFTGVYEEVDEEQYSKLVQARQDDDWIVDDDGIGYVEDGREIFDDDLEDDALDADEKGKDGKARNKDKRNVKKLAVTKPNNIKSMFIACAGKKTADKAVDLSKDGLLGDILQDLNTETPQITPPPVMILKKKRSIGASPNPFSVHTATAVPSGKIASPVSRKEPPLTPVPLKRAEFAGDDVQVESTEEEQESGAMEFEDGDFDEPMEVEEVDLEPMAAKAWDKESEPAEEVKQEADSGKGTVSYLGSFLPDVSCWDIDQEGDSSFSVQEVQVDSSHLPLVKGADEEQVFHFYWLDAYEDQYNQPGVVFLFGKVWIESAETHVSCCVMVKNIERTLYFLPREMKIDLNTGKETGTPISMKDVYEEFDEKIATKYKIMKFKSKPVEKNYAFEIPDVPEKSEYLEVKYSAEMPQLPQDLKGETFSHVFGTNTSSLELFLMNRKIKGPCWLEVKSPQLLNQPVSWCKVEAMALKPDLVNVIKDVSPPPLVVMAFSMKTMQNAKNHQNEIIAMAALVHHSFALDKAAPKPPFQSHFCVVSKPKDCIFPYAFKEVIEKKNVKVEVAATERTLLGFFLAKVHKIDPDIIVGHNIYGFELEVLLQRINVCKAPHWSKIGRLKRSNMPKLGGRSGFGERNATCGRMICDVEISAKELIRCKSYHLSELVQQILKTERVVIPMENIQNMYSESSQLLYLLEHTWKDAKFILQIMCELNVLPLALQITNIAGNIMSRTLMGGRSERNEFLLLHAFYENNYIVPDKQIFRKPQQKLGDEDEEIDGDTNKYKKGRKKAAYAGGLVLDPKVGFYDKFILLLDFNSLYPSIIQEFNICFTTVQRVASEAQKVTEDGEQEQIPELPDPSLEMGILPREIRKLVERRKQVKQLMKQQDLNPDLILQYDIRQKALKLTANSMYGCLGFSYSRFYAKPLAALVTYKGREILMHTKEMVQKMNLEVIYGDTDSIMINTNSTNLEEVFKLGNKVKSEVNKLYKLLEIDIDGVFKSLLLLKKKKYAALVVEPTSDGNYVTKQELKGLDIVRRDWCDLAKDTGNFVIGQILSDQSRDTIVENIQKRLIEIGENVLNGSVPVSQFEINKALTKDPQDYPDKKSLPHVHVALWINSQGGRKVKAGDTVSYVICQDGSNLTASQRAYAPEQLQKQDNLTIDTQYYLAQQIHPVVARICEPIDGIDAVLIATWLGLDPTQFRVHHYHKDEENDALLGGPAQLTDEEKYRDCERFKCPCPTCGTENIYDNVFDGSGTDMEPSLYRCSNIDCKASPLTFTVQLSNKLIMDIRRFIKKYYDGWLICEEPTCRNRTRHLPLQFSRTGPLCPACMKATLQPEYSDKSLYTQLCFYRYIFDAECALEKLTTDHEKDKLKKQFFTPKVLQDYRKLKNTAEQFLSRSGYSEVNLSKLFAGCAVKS
Chain of DNA polymerase α (Q14181 whole entry partner): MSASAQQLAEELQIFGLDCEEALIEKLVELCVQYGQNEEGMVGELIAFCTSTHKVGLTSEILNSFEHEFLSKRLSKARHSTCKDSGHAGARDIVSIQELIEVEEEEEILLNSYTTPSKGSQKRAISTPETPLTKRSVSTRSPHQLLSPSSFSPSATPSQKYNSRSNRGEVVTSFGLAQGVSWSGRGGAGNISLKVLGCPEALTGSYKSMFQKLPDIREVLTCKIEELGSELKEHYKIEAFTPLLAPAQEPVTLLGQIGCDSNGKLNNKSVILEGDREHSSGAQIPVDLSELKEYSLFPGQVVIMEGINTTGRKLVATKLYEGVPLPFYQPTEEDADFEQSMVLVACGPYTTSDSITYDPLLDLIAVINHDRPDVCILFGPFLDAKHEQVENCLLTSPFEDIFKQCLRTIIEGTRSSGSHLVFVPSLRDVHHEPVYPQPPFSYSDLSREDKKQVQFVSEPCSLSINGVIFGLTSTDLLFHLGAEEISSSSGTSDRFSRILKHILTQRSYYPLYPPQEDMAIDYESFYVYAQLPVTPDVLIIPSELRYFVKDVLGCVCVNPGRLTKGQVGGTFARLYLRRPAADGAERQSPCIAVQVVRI
Chain of DNA polymerase α (P49642 whole entry partner): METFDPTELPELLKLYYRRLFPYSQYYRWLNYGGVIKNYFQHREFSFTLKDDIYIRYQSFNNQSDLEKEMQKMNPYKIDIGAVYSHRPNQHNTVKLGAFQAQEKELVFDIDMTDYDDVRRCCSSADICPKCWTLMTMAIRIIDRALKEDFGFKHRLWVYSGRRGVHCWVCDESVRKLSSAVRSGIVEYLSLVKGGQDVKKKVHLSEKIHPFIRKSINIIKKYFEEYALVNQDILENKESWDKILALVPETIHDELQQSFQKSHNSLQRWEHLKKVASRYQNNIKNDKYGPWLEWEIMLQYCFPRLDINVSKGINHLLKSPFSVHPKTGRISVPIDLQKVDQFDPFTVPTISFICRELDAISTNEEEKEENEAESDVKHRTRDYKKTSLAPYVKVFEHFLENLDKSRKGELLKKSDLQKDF
Chain of DNA polymerase α (P49643 whole entry partner): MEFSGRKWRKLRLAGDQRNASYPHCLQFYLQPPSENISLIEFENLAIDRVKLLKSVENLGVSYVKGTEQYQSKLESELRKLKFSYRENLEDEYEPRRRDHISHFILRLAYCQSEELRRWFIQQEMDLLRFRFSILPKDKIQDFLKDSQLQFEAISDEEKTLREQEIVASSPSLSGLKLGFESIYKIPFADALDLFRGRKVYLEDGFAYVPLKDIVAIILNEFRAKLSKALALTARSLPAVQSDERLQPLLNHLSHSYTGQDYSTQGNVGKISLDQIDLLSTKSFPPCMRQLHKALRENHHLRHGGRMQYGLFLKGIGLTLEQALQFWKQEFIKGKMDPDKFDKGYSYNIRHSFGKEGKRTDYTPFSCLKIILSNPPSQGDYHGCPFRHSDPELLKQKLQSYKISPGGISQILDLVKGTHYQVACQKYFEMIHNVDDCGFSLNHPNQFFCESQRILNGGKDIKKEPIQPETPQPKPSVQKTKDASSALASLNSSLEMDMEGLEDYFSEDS

With `O=C(O)CCC(=O)NCCc1ccc(C2(c3ccc(CCNC(=O)CCC(=O)O)cc3)C34c5c6c7c8c9c%10c(c%11c%12c3c3c5c5c%13c6c6c7c7c9c9c%14c%10c%10c%11c%11c%12c%12c3c3c5c5c%13c%13c6c6c7c9c7c9c%14c%10c%10c%11c%11c%12c3c3c5c5c%13c6c7c6c9c%10c%11c3c56)C824)cc1` [Compound 2c, bis(monosuccinimide) derivative of p,p′-bis(2-aminoethyl)diphenyl-C60] the Ki (HIV-1 protease (HIVP)) was 5.3 µM, the mode of inhibition (HIV-1 protease (HIVP); kinetic analysis of HIVP) was “competitive” and the IC50 at 6 days (Cytotoxicity in H9 cells) was over 100 µM. For the same compound, the “cytotoxicity in H9 cells” value (H9 cells) was “No cytotoxicity; also recorded: noncytotoxic”, the IC50 (DNA polymerase α) was 4.9 µM and ~5 µM and the EC50 (HIV-1G910-6; Human immunodeficiency virus 1, PBMC, read-out: EC50 against AZT-resistant HIV-1, acutely infected PBMC / lymphocytes) was 2800 nM. It also gave an EC50 (HIV-1G910-6; read-out: EC50 against AZT-resistant HIV-1, acutely infected PBMC / lymphocytes) of 3000 nM, an EC50 (HIV-1 HI 12.2) of 2 to 8 µM and an EC50 [1] of 530 nM. For the same compound, the EC50 (HIV-1) was 50 µM, the IC50 at 3 days [2] was over 100 µM and the “cytotoxicity in Vero cells” value (Vero cells) was “No cytotoxicity; also recorded: noncytotoxic”. For the same compound, the IC50 [3] was 2000 nM, the EC50 (HIV-2ROD) was 5.5 ± 3.8 µM and the EC50 (HIV-1 LAI) was 7.3 ± 5.9 µM. The IC50 at 6 days [4] was over 100 µM and the “cytotoxicity in CEM cells” value (CEM cells) was “No cytotoxicity; also recorded: noncytotoxic”.
